Experimental data reported in PubChem BioAssay AID330 (DTP/NCI, 2004).
Where “and” joins values, the source holds several entries; their conditions need not be identical. Identical values can stand only once. Inconclusive results and toxic doses are left out. Rule for the calls: active = survival T/C of 150% or more; inactive = T/C below 125% in these data.

Tested on: P388 leukemia ip, CD2F1 mice, survival T/C
Experiment: NCI In Vivo Anticancer Drug Screen. Data for tumor model P388 Leukemia (intraperitoneal) in CD2F1 (CDF1) mice
Details: endpoint: median survival time, higher = longer survival
Outline: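 Mice carrying the transplanted tumor received test compound or vehicle. Survival was recorded in each group, and the value is the treated-group measurement divided by that of the vehicle-treated control group.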

[1] = dose: 100.0 mg/kg/injection, schedule: Q01DX001 (ip), vehicle: Klucel (hydroxypropylcellulose) (HPC)
[2] = dose: 50.0 mg/kg/injection, schedule: Q01DX009 (ip), vehicle: saline with Tween-80
[3] = dose: 100.0 mg/kg/injection, schedule: Q01DX009 (ip), vehicle: saline with Tween-80
[4] = dose: 200.0 mg/kg/injection, schedule: Q01DX009 (ip), vehicle: saline with Tween-80
[5] = dose: 50.0 mg/kg/injection, schedule: Q01DX009 (ip), vehicle: Klucel (hydroxypropylcellulose) (HPC)
[6] = dose: 100.0 mg/kg/injection, schedule: Q01DX009 (ip), vehicle: Klucel (hydroxypropylcellulose) (HPC)
[7] = dose: 200.0 mg/kg/injection, schedule: Q01DX009 (ip), vehicle: Klucel (hydroxypropylcellulose) (HPC)
[8] = dose: 50.0 mg/kg/injection, schedule: Q01DX005 (ip), vehicle: saline with Tween-80
[9] = dose: 100.0 mg/kg/injection, schedule: Q01DX005 (ip), vehicle: saline with Tween-80
[10] = dose: 200.0 mg/kg/injection, schedule: Q01DX005 (ip), vehicle: saline with Tween-80
[11] = dose: 400.0 mg/kg/injection, schedule: Q01DX009 (ip), vehicle: saline with Tween-80
[12] = dose: 60.0 mg/kg/injection, schedule: Q01DX005 (ip), vehicle: saline with Tween-80

Measured: T/C

CCP(c1ccccc1)c1ccccc1
inactive: [1] 100 % of control | dose: 100.0 mg/kg/injection, schedule: Q01DX001 (ip), vehicle: saline 107 % of control | dose: 200.0 mg/kg/injection, schedule: Q01DX001 (ip), vehicle: Klucel (hydroxypropylcellulose) (HPC) 98 % of control | dose: 200.0 mg/kg/injection, schedule: Q01DX001 (ip), vehicle: saline 96 % of control | dose: 400.0 mg/kg/injection, schedule: Q01DX001 (ip), vehicle: Klucel (hydroxypropylcellulose) (HPC) 103 % of control | dose: 400.0 mg/kg/injection, schedule: Q01DX001 (ip), vehicle: saline 96 % of control | dose: 600.0 mg/kg/injection, schedule: Q01DX001 (ip), vehicle: Klucel (hydroxypropylcellulose) (HPC) 102 % of control

CN(c1ccccc1)c1ccc([N+](=O)[O-])c2no[n+]([O-])c12
inactive: dose: 7.5 mg/kg/injection, schedule: Q01DX009 (ip), vehicle: suspension in saline 92 % of control and 97 % of control | dose: 15.0 mg/kg/injection, schedule: Q01DX009 (ip), vehicle: suspension in saline 92 % of control and 96 % of control | dose: 30.0 mg/kg/injection, schedule: Q01DX009 (ip), vehicle: suspension in saline 103 % of control and 90 % of control | dose: 60.0 mg/kg/injection, schedule: Q01DX009 (ip), vehicle: suspension in saline 110 % of control and 115 % of control

CCCCn1c(=O)cc(C(=O)O)[nH]c1=O
inactive: [2] 104 % of control | [3] 100 % of control | [4] 94 % of control

C=C(C)C(=O)O[C@H]1C[C@@]2(C)OC(=CC2=O)/C(CO)=C\[C@H]2OC(=O)C(=C)[C@H]12
inactive: dose: 1.56 mg/kg/injection, schedule: Q01DX009 (ip), vehicle: Klucel (hydroxypropylcellulose) (HPC) 108 % of control | dose: 3.13 mg/kg/injection, schedule: Q01DX009 (ip), vehicle: Klucel (hydroxypropylcellulose) (HPC) 106 % of control | dose: 6.25 mg/kg/injection, schedule: Q01DX009 (ip), vehicle: Klucel (hydroxypropylcellulose) (HPC) 117 % of control

C=NC1C=CCC=C1
inactive: dose: 100.0 mg/kg/injection, schedule: Q04DX002 (ip), vehicle: saline with Tween-80 112 % of control | dose: 200.0 mg/kg/injection, schedule: Q04DX002 (ip), vehicle: saline with Tween-80 91 % of control

O=C(CCc1ccccc1)OC/C=C/COC(=O)c1ccccc1
inactive: [5] 102 % of control | [6] 111 % of control | [7] 106 % of control

O=C(NNC(=O)c1ccncc1)Nc1cccc(Cl)c1
inactive: [5] 95 % of control | [6] 96 % of control

N#CCc1nc2ncc(Br)cc2[nH]1
inactive: dose: 100.0 mg/kg/injection, schedule: Q01DX001 (ip), vehicle: saline with Tween-80 100 % of control | dose: 200.0 mg/kg/injection, schedule: Q01DX001 (ip), vehicle: saline with Tween-80 104 % of control | dose: 400.0 mg/kg/injection, schedule: Q01DX001 (ip), vehicle: saline with Tween-80 100 % of control

CC1(C(N)=O)CCSc2ccccc2C1=O (stereo unspecified)
inactive: [8] 95 % of control | [9] 92 % of control | [10] 94 % of control

O=C(O)C(F)(F)F
inactive: [3] 90 % of control | [4] 95 % of control | [11] 90 % of control

COc1cc(C(=O)NNC(C)C)cc(OC)c1OC
inactive: dose: 50.0 mg/kg/injection, schedule: Q01DX005 (ip), vehicle: Klucel (hydroxypropylcellulose) (HPC) 104 % of control | dose: 100.0 mg/kg/injection, schedule: Q01DX005 (ip), vehicle: Klucel (hydroxypropylcellulose) (HPC) 100 % of control | dose: 200.0 mg/kg/injection, schedule: Q01DX005 (ip), vehicle: Klucel (hydroxypropylcellulose) (HPC) 107 % of control

CCn1c(=O)c2n[nH]nc2n(CCCl)c1=O
inactive: [5] 101 % of control | [6] 103 % of control | [7] 96 % of control

Cn1nc(C#N)c(=O)[nH]c1=O
inactive: dose: 12.5 mg/kg/injection, schedule: Q01DX005 (ip), vehicle: saline with Tween-80 99 % of control | dose: 25.0 mg/kg/injection, schedule: Q01DX005 (ip), vehicle: saline with Tween-80 97 % of control | [8] 99 % of control and 100 % of control

C=C1C(=O)C(CCC)=C(CC)C1O (stereo unspecified)
inactive: [12] 105 % of control

COC(=O)c1cc2c(C(=O)OC)cc1CSCc1cccc(c1)CSC2
inactive: dose: 12.5 mg/kg/injection, schedule: Q01DX009 (ip), vehicle: suspension in saline 90 % of control | dose: 25.0 mg/kg/injection, schedule: Q01DX009 (ip), vehicle: suspension in saline 87 % of control | dose: 50.0 mg/kg/injection, schedule: Q01DX009 (ip), vehicle: suspension in saline 97 % of control

CCCC1OCC(CC)C(CCC)O1 (stereo unspecified)
inactive: [3] 100 % of control | dose: 100.0 mg/kg/injection, schedule: Q04DX003 (ip), vehicle: saline sonified 100 % of control | [4] 100 % of control | dose: 200.0 mg/kg/injection, schedule: Q04DX003 (ip), vehicle: saline sonified 109 % of control | [11] 91 % of control | dose: 400.0 mg/kg/injection, schedule: Q04DX003 (ip), vehicle: saline sonified 109 % of control

CC12CC3CC(C)(C1)CC(C(Cl)C(=O)NC(C)(C)C)(C3)C2 (stereo unspecified)
inactive: [5] 97 % of control | [6] 100 % of control | [7] 93 % of control

CN1C2CCCC1CC1(C2)NC(=O)NC1=O (stereo unspecified)
inactive: dose: 50.0 mg/kg/injection, schedule: Q01DX009 (ip), vehicle: water 99 % of control | dose: 100.0 mg/kg/injection, schedule: Q01DX009 (ip), vehicle: water 100 % of control

OCC1CC=CCC1CO (stereo unspecified)
inactive: [2] 96 % of control | [3] 101 % of control | [4] 100 % of control

CN(C)CCC(OC(=O)C(c1ccccc1)c1ccccc1)c1ccccc1 (stereo unspecified)
inactive: [8] 101 % of control | [9] 103 % of control

CC(=O)OCc1c(Cl)nc2n1CCS2
inactive: dose: 25.0 mg/kg/injection, schedule: Q01DX001 (ip), vehicle: Klucel (hydroxypropylcellulose) (HPC) 103 % of control | dose: 50.0 mg/kg/injection, schedule: Q01DX001 (ip), vehicle: Klucel (hydroxypropylcellulose) (HPC) 96 % of control | [1] 102 % of control

CC(N)C(=O)NC(C(=O)NC1C(O)OC(CO)C(O)C1O)C(C)C (stereo unspecified)
inactive: dose: 60.0 mg/kg/injection, schedule: Q01DX005 (ip), vehicle: saline 99 % of control | dose: 120.0 mg/kg/injection, schedule: Q01DX005 (ip), vehicle: saline 104 % of control | dose: 240.0 mg/kg/injection, schedule: Q01DX005 (ip), vehicle: saline 97 % of control

CN1Cc2cc(Cl)ccc2N(C)Cc2cc(Cl)ccc21
inactive: [8] 101 % of control | [9] 90 % of control | [10] 92 % of control

O=C1c2ccccc2-c2nc3ncccc3cc21
inactive: dose: 100.0 mg/kg/injection, schedule: Q04DX003 (ip), vehicle: saline with Tween-80 98 % of control | dose: 200.0 mg/kg/injection, schedule: Q04DX003 (ip), vehicle: saline with Tween-80 102 % of control | dose: 400.0 mg/kg/injection, schedule: Q04DX003 (ip), vehicle: saline with Tween-80 102 % of control

O=S(=O)(CCCCl)SCCCCl
inactive: dose: 7.5 mg/kg/injection, schedule: Q01DX005 (ip), vehicle: saline with Tween-80 104 % of control | dose: 15.0 mg/kg/injection, schedule: Q01DX005 (ip), vehicle: saline with Tween-80 105 % of control | dose: 30.0 mg/kg/injection, schedule: Q01DX005 (ip), vehicle: saline with Tween-80 103 % of control and 105 % of control | [12] 96 % of control

Nc1ccc2nnnn2n1
inactive: dose: 50.0 mg/kg/injection, schedule: Q01DX009 (ip), vehicle: saline 100 % of control | dose: 100.0 mg/kg/injection, schedule: Q01DX009 (ip), vehicle: saline 98 % of control | dose: 200.0 mg/kg/injection, schedule: Q01DX009 (ip), vehicle: saline 98 % of control
